Measured values published in the NIST ThermoML archive (doi:10.1021/je060002k).
± gives the expanded uncertainty stated by the source. Each block holds one compound with its values, some of them ahead of it.

Settings: Liquid

vapor or sublimation pressure (341.85 K): 101.33 ± 3 kPa
SMILES: CCCCCC [hexane]

vapor or sublimation pressure (372.35 K): 101.33 ± 3 kPa
SMILES: CC(C)CC(C)(C)C [2,2,4-trimethylpentane]

SMILES: Cc1ccccc1 [toluene]
vapor or sublimation pressure (383.75 K): 101.33 ± 3 kPa

vapor or sublimation pressure (351.45 K): 101.33 ± 3 kPa
SMILES: CCO [ethanol]
